In patent publication US20070270471A1, “Compounds Which Potentiate Glutamate Receptor and Uses Thereof in Medicine” (GLAXO GROUP LIMITED, priority 2004, published 2007):

Target: T1, human GluR2 flip (unedited) AMPA receptor subunit (Homo sapiens, UniProt P42262)
T1 construct: expressed in transfected cells; host or cells: HEK 293 cells, stably expressing or transiently transfected
Experiment: Calcium influx fluorescence assay (FLUO4, FLIPR)
Format: cell-based
Details: HEK 293 cells expressing human GluR2 flip (unedited); potentiation of response to 100 μM glutamate; peak fluorescence
Protocol: The ability of the compounds of the invention to potentiate glutamate receptor-mediated response were determined a) by using fluorescent calcium-indicator dyes such as FLUO4 and additionally for some compounds, b) by measuring glutamate-evoked current recorded from human GluR2 flip unedited HEK293 cells.
a) Calcium Influx Fluorescence Assay
384 well plates were prepared containing confluent monolayer of HEK 293 cells either stably expressing or transiently transfected with human GluR2 flip (unedited) AMPA receptor subunit. These cells form functional homotetrameric AMPA receptors. […]
The cell plate was then transferred into a fluorescence imaging plate based reader [such as the FLIPR384 (Molecular Devices)]. A baseline fluorescence reading was taken over a 10 to 240 second period, and then 10 μL from each plate containing a compound of the invention made up in standard buffer solution (in a concentration range from 100 μM to 10 μM) was added (to give a final concentration in the range 30 μM to 3 μM). The fluorescence was read over 5 minute period. […] The fluorescence was then read over a 4 minute period. The activities of the compounds of the invention and reference compounds were determined by measuring peak fluorescence after the last addition. The activity was also expressed relative to the fluorescence increase induced by cyclothiazide at their maximum response (i.e. greater than 30 μM).

T1 sequence (P42262 25-883 isoform P42262-2 limits assumed): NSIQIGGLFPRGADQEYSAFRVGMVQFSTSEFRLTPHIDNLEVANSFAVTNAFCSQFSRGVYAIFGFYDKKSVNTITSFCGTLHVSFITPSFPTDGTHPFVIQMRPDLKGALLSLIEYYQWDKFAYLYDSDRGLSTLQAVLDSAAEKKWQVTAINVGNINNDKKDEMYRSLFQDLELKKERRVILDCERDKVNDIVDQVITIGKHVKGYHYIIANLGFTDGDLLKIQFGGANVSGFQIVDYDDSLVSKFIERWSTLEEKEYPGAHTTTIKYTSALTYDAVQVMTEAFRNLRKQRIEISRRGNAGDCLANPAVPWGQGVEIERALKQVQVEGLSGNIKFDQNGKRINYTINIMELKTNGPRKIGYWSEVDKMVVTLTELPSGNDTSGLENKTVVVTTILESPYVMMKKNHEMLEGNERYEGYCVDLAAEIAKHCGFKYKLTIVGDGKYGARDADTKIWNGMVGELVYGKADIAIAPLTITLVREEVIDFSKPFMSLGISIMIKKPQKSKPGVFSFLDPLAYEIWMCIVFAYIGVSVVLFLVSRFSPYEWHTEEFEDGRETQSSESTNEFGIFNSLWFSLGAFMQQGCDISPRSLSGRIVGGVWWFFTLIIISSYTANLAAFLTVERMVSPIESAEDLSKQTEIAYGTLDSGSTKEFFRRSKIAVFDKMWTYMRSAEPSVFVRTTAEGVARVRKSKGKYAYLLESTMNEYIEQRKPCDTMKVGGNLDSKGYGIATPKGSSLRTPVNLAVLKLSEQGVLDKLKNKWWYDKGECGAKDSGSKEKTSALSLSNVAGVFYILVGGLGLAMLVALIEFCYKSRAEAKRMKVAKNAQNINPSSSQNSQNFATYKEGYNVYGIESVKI

EC50: 1580 nM
SMILES: CC(C)S(=O)(=O)N[C@@H]1CN(C)C[C@H]1c1ccc(-c2cccc(N(C)S(C)(=O)=O)c2)cc1 (relative stereo) [Example 19, N-(trans-1-methyl-4-{3′-[methyl(methylsulfonyl)amino]-4-biphenylyl}-3-pyrrolidinyl)-2-propanesulfonamide]
